Results on 1 molecule are retold here after patent US11331354B2, “Fecal virome and therapeutic efficacy of fecal microbiota transplantation” (priority 2018, dated 2022).

The test system of assay [1] is Clostridium difficile infection. Put plainly: Randomised controlled trial substudy of FMT versus vancomycin in patients with CDI: clinical outcome (symptoms, stool C. difficile toxin). Format: in vivo, human. As for the experimental part:
The current study was a substudy from a randomised controlled trial (RCT) of FMT versus vancomycin for patients with CDI. Consecutive CDI subjects enrolled into this RCT were invited to participate in a substudy of assessment of fecal microbiota. Patients were included if they had three or more loose or watery stools per day for at least two consecutive days, or eight or more soft or loose stools in 48 hours, and a positive stool test for C. difficile based on a two-step testing algorithm in the hospital, a positive GDH (glutamate dehydrogenase) screening test followed by a positive PCR test of C. difficile. A total of 24 subjects with CDI and 20 healthy household controls were recruited, and stool samples at baseline were obtained for analyses of virome and bacterial microbiome. Among them, 14 CDI subjects consented to have stool samples collected serially after treatment for microbiome analysis. Nine CDI subjects were treated with FMT and five were treated with vancomycin, and they were followed up at baseline and weeks 2, 4, 10 and 16 after treatment (FIG. 6). One patient FMT6 had recurrent CDI. This patient had five previous episodes of CDI prior to FMT. Subjects in the FMT group received 5 days of vancomycin followed by donor-infused stool via nasojejunal route, and those who had standard therapy (STD) received oral vancomycin 500 mg four times per day for 10 days. A computer-generated randomisation schedule was used to assign patients to the treatment sequences. All patients kept a stool diary and were questioned about stool frequency and consistency and medication use.
Treatment response was defined as an absence of diarrhoea or persistent diarrhoea that could be explained by other causes with a negative stool test for C. difficile toxin, while relapse was defined as diarrhoea with a positive stool test for C. difficile toxin. Treatment cure is defined as symptom resolution and a negative Clostridium difficile toxin in stool until the last follow-up (last follow-up was referred to as the last stool collection time point, as shown in FIG. 6). […] CDI recipients FMT8 and FMT9 shared the same donor, and this donor was termed ‘D8’. None of the patients had received antibiotics or proton pump inhibitors after FMT.
1. C. difficile infection was defined as diarrhea (≥3 soft, loose or watery stools per day for at least 2 consecutive days or ≥8 soft or loose stools in 48 hours) and a positive stool test for C. difficile toxin; and
Family members provided donor stool for subjects randomised to FMT arm. Cure after FMT or vancomycin therapy was defined as symptom resolution and negative Clostridium difficile toxin in stool at last follow-up by PCR assay. Relapse was defined as diarrhea with a positive stool test for C. difficile toxin.
In subjects who received FMT, a nasoduodenal tube was inserted with radiology guidance. Donor feces was diluted with 500 ml of sterile saline (0.9%), blended and the supernatant was strained with filter paper and poured in a sterile bottle. Within 6 hours after collection of feces by the donor, the solution was infused through a nasoduodenal tube (2 to 3 minutes per 50 ml). The tube was removed 30 minutes after the infusion, and patients were monitored for 2 hours. In subjects with received FMT, a minimum of 50 g of donor stool was collected on the same day of infusion and used within 6 hours of collection.

The test system of assay [2] is enteric virome (Caudovirales, Microviridae, Anelloviridae). Put plainly: Ultra-deep metagenomic sequencing of virus-like particle (VLP) preparations from stool: enteric virome abundance, diversity, richness, donor-derived contigs. Format: in vivo, human. As to the method:
VLPs were enriched from pulverised human stool, using a protocol according to previously described methods.^11 17 VLP DNAs were quantified (NanoDrop), and 1 μg of DNA was randomly fragmented by ultrasonication (Covaris) followed by library construction. The qualified libraries were amplified on cBot to generate the cluster on the flow cell (TruSeq PE Cluster Kit V3-cBot-HS, Illumina). The amplified libraries were sequenced paired end on the HiSeq 2000 System (TruSeq SBS KIT-HS V3, Illumina) (BGI, Shenzhen, China; standard 2×150 bp run), generating 20-60 million raw sequences (5-8 G raw data) per sample (sequence statistics in Table 3). Sequence processing and quality control, de novo contig assembly and taxonomy annotation were performed.
To estimate contig abundance and calculate sequence diversity, all reads were aligned to the resulting contigs using Bowtie2 (V. 2.2.9).^18 The mapped sequence counts, contig lengths and total sequence counts were used to normalise the sequence counts and represent the RPKM (reads per kilobase per million) of each sample to the contigs. These values were used to generate an operational taxonomic unit (OTU) relative abundance table, which was annotated with the taxonomy described above. The virome abundance data were imported into R 3.2.3. Richness, diversity and rarefaction calculation were performed using the estimated richness function of the phyloseq package. Diversity and richness plots were generated in GraphPad Prism (V. 6.0). Spearman correlations and their significance were calculated using the cor and cor.test functions in R, respectively. […] Correlation plots were generated using the corrplot R package. Heat maps were generated using the pheatmap R package. LEfSe linear discriminant analysis and multivariate analysis were performed.
To establish the presence of a species or a contig within a sample, the RPKM of a contig or a species is set to be >2 (a stringent criteria), so as to rule out the false-positive finding) for the contig or the species to be assured as present within a sample. In samples after FMT, if a contig or a species was not present in the recipient baseline sample but present in the corresponding donor baseline sample and in the recipient post-FMT sample, the contig or species was defined as ‘donor-derived’; if a contig or a species was not present in the corresponding donor baseline sample but detected both in the recipient baseline sample and in the recipient post-FMT sample, the contig or the species was defined as ‘recipient-exclusive’, if a contig or a species was present across the recipient baseline sample, the recipient post-FMT sample and the corresponding donor baseline sample, the contig or the species was defined as ‘donor recipient coexisted.’ To determine the abundance alteration of Caudovirales species after FMT, the species' relative abundance (RA) fold change was defined as fc=log 2(post-FMT last follow-up RA/pre-FMT baseline RA).
Approximately 200 mg of stool was suspended in 400 μl saline-magnesium buffer (0.1 M NaCl, 0.008 M MgSO4-7H2O, 0.002% gelatin, 0.05 M Tris pH7.5) by vortexing for 10 min. Stool suspensions were then cleared by centrifugation at 2,000×g to remove debris and cells. Clarified suspensions were passed through one […] followed by two […] filters to remove residual host and bacterial cells. […]

With `CN[C@H](CC(C)C)C(=O)N[C@H]1C(=O)N[C@@H](CC(N)=O)C(=O)N[C@H]2C(=O)N[C@H]3C(=O)N[C@H](C(=O)N[C@H](C(=O)O)c4cc(O)cc(O)c4-c4cc3ccc4O)[C@H](O)c3ccc(c(Cl)c3)Oc3cc2cc(c3O[C@@H]2O[C@H](CO)[C@@H](O)[C@H](O)[C@H]2O[C@H]2C[C@](C)(N)[C@H](O)[C@H](C)O2)Oc2ccc(cc2Cl)[C@H]1O` [vancomycin], the “subjects cured of CDI (responders)” value in assay [1] (median follow-up of 16 weeks, nine FMT subjects, five vancomycin patients) is “three of the five”. Further, the results for the Recurrence at week result in assay [1] (subject STD1) and in assay [1] (subject STD2) were “at week 12” and “at week 7”, respectively. Further, the “Outcome (till last follow-up)” value is reported as “Recurrence” in assay [1] (subject STD1, severe CDI, follow-up 20 weeks); “Recurrence” in assay [1] (subject STD2, moderate CDI, follow-up 7 weeks); “Cured” in assay [1] (subject STD3, severe CDI, follow-up 14 weeks); “Cured” in assay [1] (subject STD4, severe CDI, follow-up 17 weeks); “Cured” in assay [1] (subject STD5, moderate CDI, follow-up 26 weeks). Moreover, the figures for the “virome structure over time” value in assay [2] (CDI subjects who did not respond to vancomycin) and in assay [2] (CDI subjects who responded to vancomycin) were “marked oscillation” and “not significantly altered”, respectively. The “change in Caudovirales abundance after treatment” value in assay [2] (stool of CDI subjects, pre- versus post-treatment) was “increased”. Moreover, the “Caudovirales diversity and richness as well as bacterial diversity and richness over the course of treatment” value in assay [2] (subjects who did not respond to vancomycin (STD1 and STD2)) is “substantial fluctuation”. In assay [2] (subjects who responded to vancomycin (STD3, STD4, STD5)), the “change in Caudovirales diversity or richness” value was “no significant change”.
